Series [1] deals with T1, Protein cereblon/Phospholipid hydroperoxide glutathione peroxidase GPX4 (Homo sapiens) (UniProt Q96SW2+P36969). Put plainly: PROTAC activity at CRBN/GPX4 in human HT-1080 cells assessed as induction of GPX4 degradation at 1 uM incubated for 24 hrs by Western blot analysis relative to control. Format: cell-based.
Series [2] has as its target T1, Protein cereblon/Phospholipid hydroperoxide glutathione peroxidase GPX4 (Homo sapiens). Put plainly: PROTAC activity at CRBN/GPX4 in human HT-1080 cells assessed as induction of GPX4 degradation at 0.1 uM incubated for 24 hrs by Western blot analysis relative to control. Format: cell-based.
For series [3], the system named is HT-1080. Put plainly: Antiproliferative activity against human HT-1080 cells assessed as reduction in cell viability incubated for 24 hrs by MTT assay. Format: functional, cell-based. The note with it: HT-1080, 24 h. In general terms: Tetrazolium assays rely on reduction of a dye to a coloured formazan, in cell work by metabolically active cells.
Series [4] deals with T1, Protein cereblon/Phospholipid hydroperoxide glutathione peroxidase GPX4 (Homo sapiens). As to the kind of experiment: PROTAC activity at CRBN/GPX4 in human HT-1080 cells assessed as induction of GPX4 degradation at 1 uM by Western blot analysis. Format: cell-based. Conditions: time <= 24.0 hrs, TDE = time-dependent effect. (In general: Immunoblotting shows a protein as a band on a membrane.)

For series [5] the target is unchanged. As to the kind of experiment: (§1) PROTAC activity at CRBN/GPX4 in human HT-1080 cells assessed as induction of GPX4 degradation incubated for 24 hrs by Western blot analysis. The series is classed as cell-based.
Series [6] addresses Protein cereblon/Phospholipid hydroperoxide glutathione peroxidase GPX4 (Homo sapiens, UniProt P36969+Q96SW2). The series is described as §1. The series is classed as cell-based.
The target in series [7] is T2, Phospholipid hydroperoxide glutathione peroxidase GPX4 (Homo sapiens, UniProt P36969).
T2 sequence (P36969 whole entry): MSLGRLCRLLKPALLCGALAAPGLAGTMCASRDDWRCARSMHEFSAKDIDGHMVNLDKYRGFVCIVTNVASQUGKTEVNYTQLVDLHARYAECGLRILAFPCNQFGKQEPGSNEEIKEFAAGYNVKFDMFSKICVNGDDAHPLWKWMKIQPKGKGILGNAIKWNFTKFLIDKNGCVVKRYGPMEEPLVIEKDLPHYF
Put plainly: Induction of GPX4 degradation in human HT-1080 cells measured after 24 hrs. Format: cell-based.

A further series has as its system A-375. Put plainly: Antiproliferative activity against human A-375 cells assessed as reduction in cell viability incubated for 24 hrs by MTT assay. The series is classed as functional, cell-based. Conditions: A-375, 24 h.
In series [8] the target is T3, Phospholipid hydroperoxide glutathione peroxidase GPX4 (Homo sapiens) (UniProt P36969).
T3 sequence (whole entry): T2 sequence (P36969 whole entry)
As to the kind of experiment: Induction of GPX4 degradation in human HT-1080 cells assessed as reduction in GPX4 protein level measured after 6 hrs. The series is classed as cell-based.

In series [9] the target is T3, Phospholipid hydroperoxide glutathione peroxidase GPX4 (Homo sapiens). As to the kind of experiment: Induction of GPX4 degradation in human HT-1080 cells measured after 12 hrs relative to control. Format: cell-based.
In another series the test system is Calu-1. As to the kind of experiment: Antiproliferative activity against human Calu-1 cells assessed as reduction in cell viability incubated for 24 hrs by MTT assay. Format: functional, cell-based. The note with it: Calu-1, 24 h.
The test system of series [10] is HT-1080. Put plainly: Induction of ferroptosis in human HT-1080 cells assessed as increase in ROS accumulation at 0.3 uM measured at 6 to 12 hrs by fluorescence intensity based flow cytometric analysis. The note with it: time 6-12 hrs. The series is classed as functional, cell-based. On the technique in general: In flow cytometry, cells or beads pass a laser one at a time.

The nature of series [11]: Toxicity in Balb/c nude mouse xenografted with human HT-1080 cells assessed as body weight loss at 3 mg/kg, iv administered once every two days for 10 days. Format: organism-based. Conditions: in vivo, 240 h, time 10 day.
Series [12] is described as follows: Cytotoxicity against HEK293T cells assessed as reduction in cell viability measured after 24 hrs by MTT assay. Format: toxicity, cell-based, HEK-293T. The note with it: human.
The target of series [13] is T1, Protein cereblon/Phospholipid hydroperoxide glutathione peroxidase GPX4 (Homo sapiens). As to the kind of experiment: PROTAC activity at CRBN/GPX4 in human HT-1080 cells assessed as induction of GPX4 degradation at 0.1 uM incubated for 12 hrs by Western blot analysis relative to control. Format: cell-based.
The subject of the next series is Mus musculus. As to the kind of experiment: In vivo PROTAC activity at CRBN/GPX4 in human HT-1080 cells xenografted in Balb/c nude mouse assessed as reduction in GPX4 level in tumor at 20 mg/kg,iv administered as single dose by immunoblotting analysis. Format: functional, organism-based. Conditions: time 6-48 hrs, TDE = time-dependent effect.
Series [14] has as its target T1, Protein cereblon/Phospholipid hydroperoxide glutathione peroxidase GPX4 (Homo sapiens). As to the kind of experiment: PROTAC activity at CRBN/GPX4 in human HT-1080 cells assessed as induction of GPX4 degradation at 0.3 uM incubated for 24 hrs by Western blot analysis relative to control. The series is classed as cell-based.
The target is the same in series [15]. Put plainly: PROTAC activity at CRBN/GPX4 in human HT-1080 cells assessed as induction of GPX4 degradation in the presence of lenalidomide by ligand competition assay. The series is classed as cell-based.
For series [16] the target is unchanged. Put plainly: PROTAC activity at CRBN/GPX4 in human HT-1080 cells assessed as induction of GPX4 degradation in the presence of ML210 by ligand competition assay. The series is classed as cell-based.
Series [17] in a line: Toxicity in Balb/c nude mouse xenografted with human HT-1080 cells assessed as body weight loss at 5 to 40 mg/kg, iv administered once every two days for 10 days. Conditions: in vivo, 240 h, dose 5-40 mg/kg, time 10 day. Format: organism-based.
Series [18] deals with HT-1080. Put plainly: Induction of ferroptosis in human HT-1080 cells assessed as increase in ROS accumulation at 0.3 uM measured upto 12 hrs by fluorescence intensity based flow cytometric analysis. Format: functional, cell-based.
The nature of series [19]: Potency index, ratio of test compound IC50 to ML210 IC50 for cytotoxicity against HEK293T cells. Format: toxicity, cell-based, HEK-293T. The note with it: human, read-out: Ratio IC50.
Series [20] concerns HT-1080. Put plainly: Antiproliferative activity against human HT-1080 cells assessed as reduction in cell viability at 10 uM incubated for 24 hrs in the presence of liproxstin-1 by MTT assay. The series is classed as functional, cell-based.
The target of series [21] is T1, Protein cereblon/Phospholipid hydroperoxide glutathione peroxidase GPX4 (Homo sapiens). Put plainly: Potency index, ratio of […] EC50 to test compound EC50 for PROTAC activity at CRBN/GPX4 in human HT-1080 cells. The series is classed as cell-based.
For series [22] the target is unchanged. As to the kind of experiment: PROTAC activity at CRBN/GPX4 in human HT-1080 cells assessed as induction of GPX4 degradation at 0.1 uM preincubated with MG132 and Baf-A1 for 2 hrs followed by compound addition and measured after 12 hrs by Western blot analysis. The series is classed as cell-based.
The subject of series [23] is HT-1080. Put plainly: Induction of ferroptosis in human HT-1080 cells assessed as cell death at 0.3 uM preincubated with liproxstin-1 for 2 hrs followed by compound addition and measured after 12 hrs by fluorescence intensity based flow cytometric analysis. Format: functional.

Active and inactive are the calls of the source. The rule behind the calls is not given here.

In the case of `Cc1onc(C(=O)N2CCN(C(c3ccc(Cl)cc3)c3ccc(OCC(=O)N4CCC(CN5CCN(CCNc6cccc7c6C(=O)N(C6CCC(=O)NC6=O)C7=O)CC5)CC4)cc3)CC2)c1[N+](=O)[O-]` (centres undefined), the figures for the Activity in series [1] and in series [2] were above 80% and 36%, respectively.

Regarding `Cc1onc(C(=O)N2CCN(C(c3ccc(Cl)cc3)c3ccc(OCC(=O)N4CCC(CN5CCN(CCCCNc6cccc7c6C(=O)N(C6CCC(=O)NC6=O)C7=O)CC5)CC4)cc3)CC2)c1[N+](=O)[O-]` (centres undefined), the Activity was 70% in series [1] and 42% in series [2].

Consider `Cc1onc(C(=O)N2CCN(C(c3ccc(Cl)cc3)c3ccc(OCC(=O)N4CCN(CCCCCCCNc5cccc6c5CN(C5CCC(=O)NC5=O)C6=O)CC4)cc3)CC2)c1[N+](=O)[O-]` (centres undefined), for which the Activity in series [1] is 13%.

On to `Cc1onc(C(=O)N2CCN(C(c3ccc(Cl)cc3)c3ccc(OCC(=O)N4CCC(CN5CCN(CCCCCNc6cccc7c6C(=O)N(C6CCC(=O)NC6=O)C7=O)CC5)CC4)cc3)CC2)c1[N+](=O)[O-]` (centres undefined), for which the values for the Activity in series [1] and in series [2] were above 80% and 33%, respectively.

As for `Cc1onc(C(=O)N2CCN(C(c3ccc(Cl)cc3)c3ccc(OCC(=O)N4CCN(CCCCCCCCCCCCCCNc5cccc6c5CN(C5CCC(=O)NC5=O)C6=O)CC4)cc3)CC2)c1[N+](=O)[O-]` (centres undefined), in series [1], the Activity was below 5%.

Take `Cc1onc(C(=O)N2CCN(C(c3ccc(Cl)cc3)c3ccc(OCC(=O)N4CCN(CCCCCCCCCCNc5cccc6c5CN(C5CCC(=O)NC5=O)C6=O)CC4)cc3)CC2)c1[N+](=O)[O-]` (centres undefined): the Activity in series [1] is 43%.

As for `Cc1onc(C(=O)N2CCN(C(c3ccc(Cl)cc3)c3ccc(OCC(=O)N4CCC(CN5CCC(CN6CCN(c7cccc8c7C(=O)N(C7CCC(=O)NC7=O)C8=O)CC6)CC5)CC4)cc3)CC2)c1[N+](=O)[O-]` (centres undefined), the IC50 – broadly, the concentration at which inhibition is half-maximal – in the series on HT-1080 [3] was 1000 nM. Also, in [1], the Activity stood at 30%.

With `Cc1onc(C(=O)N2CCN(C(c3ccc(Cl)cc3)c3ccc(OCC(=O)N4CCC(CN5CCC(CN6CCC(Nc7cccc8c7C(=O)N(C7CCC(=O)NC7=O)C8=O)CC6)CC5)CC4)cc3)CC2)c1[N+](=O)[O-]` (centres undefined), the IC50 in the series on HT-1080 [3] is 1200 nM. Moreover, in [1], the Activity was found to be 25%.

`Cc1onc(C(=O)N2CCN(C(c3ccc(Cl)cc3)c3ccc(OCC(=O)N4CCN(CCCCCCCCNc5cccc6c5CN(C5CCC(=O)NC5=O)C6=O)CC4)cc3)CC2)c1[N+](=O)[O-]` (centres undefined): the Activity in series [1] came to 36%.

As for `Cc1onc(C(=O)N2CCN(C(c3ccc(Cl)cc3)c3ccc(OCC(=O)N4CCN(CCCCCCCCCNc5cccc6c5CN(C5CCC(=O)NC5=O)C6=O)CC4)cc3)CC2)c1[N+](=O)[O-]` (centres undefined), in the series with HT-1080 [3], the IC50 is 300 nM. Also, the Activity entry in [4] was “Tde”; in series [5], “Dose-Dependent Effect”; in series [1], 40%. Also, the EC50 (as a rule, the concentration at which the effect is half-maximal) in series [6] was determined as 400 nM.

Consider `Cc1onc(C(=O)N2CCN(C(c3ccc(Cl)cc3)c3ccc(Cl)cc3)CC2)c1[N+](=O)[O-]`, for which the EC50 in [7] amounted to 650 nM. In addition, the IC50 is 300 nM in the series on A-375, 100 nM in the series with HT-1080 [3] and 900 nM in the series with Calu-1. Besides, in [8], the outcome was Active. Moreover, the Activity in series [9] was above 60%; in series [11], “Toxic”. The outcome in the series with HT-1080 [10] was inactive. For the same molecule, the IC50 at 24 h in series [12] was determined as 200 nM.

For `Cc1onc(C(=O)N2CCN(C(c3ccc(Cl)cc3)c3ccc(OCC(=O)N4CCN(CCCCCCCCCCCNc5cccc6c5CN(C5CCC(=O)NC5=O)C6=O)CC4)cc3)CC2)c1[N+](=O)[O-]` (centres undefined), the Activity in series [1] amounted to 54%.

On to `Cc1onc(C(=O)N2CCN(C(c3ccc(Cl)cc3)c3ccc(OCC(=O)N4CCN(CCCCCCCCCCCCNc5cccc6c5CN(C5CCC(=O)NC5=O)C6=O)CC4)cc3)CC2)c1[N+](=O)[O-]` (centres undefined), for which, in series [1], the Activity came to 32%.

As to `Cc1onc(C(=O)N2CCN(C(c3ccc(Cl)cc3)c3ccc(OCC(=O)N4CCN(CCCCCCCCCCCCCNc5cccc6c5CN(C5CCC(=O)NC5=O)C6=O)CC4)cc3)CC2)c1[N+](=O)[O-]` (centres undefined), the Activity in series [1] was determined as 36%.

Turning to `Cc1onc(C(=O)N2CCN(C(c3ccc(Cl)cc3)c3ccc(OCC(=O)N4CCC(CN5CCN(CCCNc6cccc7c6C(=O)N(C6CCC(=O)NC6=O)C7=O)CC5)CC4)cc3)CC2)c1[N+](=O)[O-]` (centres undefined), the Activity in series [13] was above 80%; with Mus musculus, “Tde”; in series [4], “Tde”; in series [14], 100%; in series [17], “Non-Toxic”; in [5], “Dose-Dependent Effect”. For the same molecule, the Activity in [1] is above 78%; in series [2] it was 82%. Further, the IC50 in the series on A-375 was determined as 200 nM; in the series on HT-1080 [3] it was 100 nM; in the series with Calu-1 it was 300 nM. The result (in series [15]; in series [16]; in the series on HT-1080 [18]) was Active. Also, the EC50 in series [6] was determined as 30 nM. Moreover, the selectivity ratio in [19] came to 5. The result (in the series on HT-1080 [20]; in series [22]; with HT-1080 [23]) was inactive. Moreover, the Ratio EC50 in series [21] worked out at 22. The IC50 at 24 h in [12] was determined as 1100 nM.

As to `Cc1onc(C(=O)N2CCN(C(c3ccc(Cl)cc3)c3ccc(OCC(=O)N4CCC(CN5CCN(CCCCCCNc6cccc7c6C(=O)N(C6CCC(=O)NC6=O)C7=O)CC5)CC4)cc3)CC2)c1[N+](=O)[O-]` (centres undefined), the values for the Activity in series [1] and in [2] were above 80% and 50%, respectively.
